In paper PMC8596843, “Platinum Cyclooctadiene Complexes with Activity against Gram‐positive Bacteria” (Chemmedchem, 2021):
Where two headings read alike, the source gives them in different places.

How the values were obtained:
[1] = system: Acinetobacter baumannii ATCC 19606; assay: Antibacterial MIC assay; format: cell-based; details: CO‐ADD screening
Procedure: (§1) All compounds submitted to CO‐ADD are initially screened against five bacterial strains (Staphylococcus aureus (MRSA), E. coli, Klebsiella pneumoniae, Pseudomonas aeruginosa, Acinetobacter baumannii) and two fungal strains (Candida albicans, Cryptococcus neoformans) at a single concentration (32 μg/mL or 20 μM) performed as a high‐throughput primary screening.[[11], [17a]] Any compounds that show significant growth inhibition against any of the tested strains at this step are then evaluated in a dose‐response assay against these same strains. […]
(§2) Smiles: C1C=CCCC(=CC1)C1=CCCC=CCC1.C[Pt]C.C[Pt]C […]
(§3) ATCC strains were sourced from the American Type Culture Collection and NRS strains from NARSA (Network on Antimicrobial Resistance in Staphylococcus aureus) via BEI Resources (www.beiresources.org), with clinical MSSA and MRSA isolates from Prof Graeme Nimmo, Queensland […]
(§4) Health Central Pathology. […]
(§5) Antibacterial minimum inhibitory concentration (MIC) assay
(§6) Compound Assay Plate Preparation: Compounds were dissolved in DMSO at 10mM (CO-ADD screening) or 4 mM (follow up screening) and were plated in a 2-fold dose response from 20 to 0.156 µM or 200 to 0.006 µM respectively, with a maximum of 0.5% or 1% DMSO, final in the assay […]
(§7) plated in a 2-fold dose response from 200 to 0.006 µM, with a maximum of 1 % DMSO, final in the assay concentration. (in-house screening)
(§8) For all the bacterial assays, each strain was cultured in Cation-adjusted Mueller Hinton broth (CAMHB; Bacto Laboratories 212322) at 37 °C overnight. A sample of each culture was then diluted 40-fold in fresh CAMHB and incubated at 37 °C for 1.5–3 h. The resultant mid-log phase cultures were diluted with CAMHB (CFU mL−1 measured by OD600), then added to each well of the compound-containing plates (384-well non-binding surface (NBS) plates; Corning CLS3640), giving a cell density of 5 × 10^5 CFU mL−1 and a total volume of 50 μL. Plates were covered and incubated at 37 °C for 18 h without shaking. Inhibition of bacterial growth was determined measuring absorbance at 600 nm (OD600), using media only as negative control and bacteria without inhibitors as positive control. MIC values were determined as the lowest concentration at which the growth was inhibited at ≥80%. Colistin sulfate (Sigma C4461) and vancomycin HCl (Sigma 861987) were used as internal controls on each plate for Gram-negative and Gram-positive bacteria, respectively. […]

[2] = system: Escherichia coli ATCC 25922; assay: Antibacterial MIC assay; format: cell-based; details: CO‐ADD screening
Procedure: as §1, §2, §3, §4, §5, §6, §7, §8

[3] = system: Pseudomonas aeruginosa ATCC 27853; assay: Antibacterial MIC assay; format: cell-based; details: CO‐ADD screening
Procedure: as §1, §2, §3, §4, §5, §6, §7, §8

[4] = system: Klebsiella pneumoniae ATCC 700603 (ESBL SHV‐18)
Procedure: as §1, §2, §3, §4, §5, §6, §7, §8

[5] = system: E. coli lpxC (non‐efficient lipid A production mutant); assay: MIC against E. coli membrane mutants; format: cell-based, Escherichia coli
Procedure: as §5
(§9) concentration. (in-house screening)
(§10) Bacto Laboratories 212322) at 37 °C overnight.
(§11) The resultant mid-log phase cultures were diluted
(§12) Gram-negative and Gram-positive bacteria, respectively.
(§13) final concentration range of 0.8 – 100 µM.
(§14) inhibitors as positive control. […]

[6] = system: E. coli tolC (efflux pump deficient); assay: MIC against E. coli membrane mutants; format: cell-based, Escherichia coli
Procedure: as §5, §9, §10, §11, §12, §13, §14

[7] = system: Staphylococcus aureus ATCC 43300 (MRSA); assay: microbe, parasite or virus in culture; format: cell-based; details: for MIC Sa: CO‐ADD screening
Procedure: as §1, §2, §3, §4, §5, §6, §7, §8

[8] = system: Candida albicans ATCC 90028; assay: Antifungal MIC (CO-ADD screening); format: cell-based
Procedure: (§15) InChIKey: PHIWIZAHOBWKFJ-HPCBIOCFSA-N
(§16) Health Central Pathology. Candida albicans (ATCC 90028, NCCLS 11), Cryptococcus neoformans
as §5, §9, §10

[9] = system: Cryptococcus neoformans H99 ATCC 208821; assay: Antifungal MIC (CO-ADD screening); format: cell-based
Procedure: as §15, §16, §5, §9, §10

[10] = system: HEK-293 ATCC CRL-1573 human embryonic kidney cells; format: cell-based
Procedure: As part of the CO‐ADD screening, all compounds that show any activity against a microbial strain are evaluated for their cytotoxicity against human embryonic kidney cells (HEK‐293) and for haemolysis against human red blood cells. None of the compounds tested for cytotoxicity (Pt1‐9 and Pd1) caused any significant cell death up to concentrations of 100 μM. […] We have also observed higher IC50 values for the methylated complexes Pt3 and Pt4 against HeLa cells in previous work.[16] […]
(§17) inhibitors as positive control.
(§18) Tamoxifen (Sigma T5648) was used
(§19) as internal control on each plate.
in a Neubauer haemocytometer. […]

human red blood cells = assay: Haemolysis assay; format: cell-based; details: for Haemolysis HC10: concentration inducing 10 % haemolysis; for Haemolysis HC50: concentration inducing 50 % haemolysis
Procedure: As part of the CO‐ADD screening, all compounds that show any activity against a microbial strain are evaluated for their cytotoxicity against human embryonic kidney cells (HEK‐293) and for haemolysis against human red blood cells. None of the compounds tested for cytotoxicity (Pt1‐9 and Pd1) caused any significant cell death up to concentrations of 100 μM. […] We have also observed higher IC50 values for the methylated complexes Pt3 and Pt4 against HeLa cells in previous work.[16]
as §11, §12, §13, §17, §18, §19
in a Neubauer haemocytometer.
incubated for 1 h at 37 °C, without shaking.
HC10 and HC50 (concentration at which 10%
for top, bottom and slope using Prism 8. […]

[11] = system: Staphylococcus aureus ATCC 25923, MSSA; assay: Antibacterial MIC assay, Gram-positive panel; format: cell-based; details: Table S1 panel; n=4
Source text: (§20) Bis(dimethyl-η4)-((1Z,1'E,5Z,5'E)-(1,1'-bi(cyclooctadiene))diplatinum(II) (Pt14) Smiles: C1C=CCCC(=CC1)C1=CCCC=CCC1.C[Pt]C.C[Pt]C
as §15
(§21) Link to selected data that was repeated to approve the identity of the compounds: https://dx.doi.org/10.14272/PHIWIZAHOBWKFJ-HPCBIOCFSA-N.1
as §3, §4, §5, §6, §7, §8

[12] = system: Staphylococcus aureus VRS 1, VRSA (VanA); assay: Antibacterial MIC assay, Gram-positive panel; format: cell-based; details: Table S1 panel; n=4
Source text: as §20, §15, §21, §3, §4, §5, §6, §7, §8

[13] = system: Enterococcus faecalis ATCC 29212, control strain; assay: Antibacterial MIC assay, Gram-positive panel; format: cell-based; details: Table S1 panel; n=4
Procedure: as §2, §3, §4, §5, §6, §7, §8

[14] = system: Enterococcus faecalis Clinical Isolate, VRE (VanB); assay: Antibacterial MIC assay, Gram-positive panel; format: cell-based; details: Table S1 panel; n=4
Procedure: as §2, §3, §4, §5, §6, §7, §8

[15] = system: Enterococcus faecium ATCC 35667, type strain; assay: Antibacterial MIC assay, Gram-positive panel; format: cell-based; details: Table S1 panel; n=4
Procedure: as §2, §3, §4, §5, §6, §7, §8

[16] = system: Enterococcus faecium Clinical Isolate, VRE (VanA); assay: Antibacterial MIC assay, Gram-positive panel; format: cell-based; details: Table S1 panel; n=4
Procedure: as §2, §3, §4, §5, §6, §7, §8

[17] = system: Staphylococcus epidermidis ATCC 14990, type strain; assay: Antibacterial MIC assay, Gram-positive panel; format: cell-based; details: Table S1 panel; n=4
Procedure: as §2, §3, §4, §5, §6, §7, §8

[18] = system: Staphylococcus epidermidis NRS 60, VISE; assay: Antibacterial MIC assay, Gram-positive panel; format: cell-based; details: Table S1 panel; n=4
Procedure: as §2, §3, §4, §5, §6, §7, §8

[19] = system: B. subtilis ATCC 6051 type strain; assay: MIC in the presence of human serum (serum reversal); format: cell-based, Bacillus subtilis; details: 10% serum
Source text: (§22) To obtain some initial insight into the apparent disparity between in vitro and in vivo results, we repeated the MIC experiments against four selected Gram‐positive strains in the presence of 10 % or 50 % human serum (Table S3). Pt1 and Pt2 maintained some antibacterial activity against B. subtilis in the presence of 10 % serum, but a complete loss of activity was observed against MRSA and GISA (50 % serum), and VRE (10 % serum). […] Systemic administration is therefore unlikely to be a suitable administration route for this class of compounds unless an alternative formulation that can prevent serum binding (e. g. by lipid or nanoparticle encapsulation) can be found. […] Further in vivo studies should therefore focus on more suitable disease models. […]
as §5, §9, §10, §11, §12, §13, §14

[20] = system: S. aureus ATCC 43300 MRSA; assay: as above; format: cell-based, Staphylococcus aureus; details: 50% serum
Source text: as §22, §5, §9, §10, §11, §12, §13, §14

S. aureus NRS 17 GISA = assay: as above; format: cell-based, Staphylococcus aureus; details: 50% serum
Source text: as §22, §5, §9, §10, §11, §12, §13, §14

[21] = system: E. faecium ATCC 51559 MDR, VRE; assay: as above; format: cell-based, Enterococcus faecium; details: 10% serum
Source text: as §22, §5, §9, §10, §11, §12, §13, §14

[22] = system: Enterococcus faecium ATCC 51559, MDR, VRE (VanA); assay: Antibacterial MIC assay, Gram-positive panel; format: cell-based; details: Table S1 panel; n=2
Procedure: as §2, §3, §4, §5, §6, §7, §8

[23] = system: Staphylococcus aureus NRS 17, GISA; assay: Antibacterial MIC assay, Gram-positive panel; format: cell-based; details: Table S1 panel; n=2
Procedure: as §2, §3, §4, §5, §6, §7, §8

| Compound | MIC Sa [7] [µM] | MIC Ab [1] [µM] | MIC Ec [2] [µM] | MIC Pa [3] [µM] | MIC Kp [4] [µM] | MIC Ca [8] [µM] | MIC Cn [9] [µM] | CC50 [10] [µM] | Haemolysis HC10 (human red blood cells) [µM] | Haemolysis HC50 (human red blood cells) [µM] | MIC [11] [µM] | MIC [12] [µM] | MIC [13] [µM] | MIC [14] [µM] | MIC [15] [µM] | MIC [16] [µM] | MIC [17] [µM] | MIC [18] [µM] | MIC E. coli TolC ([6]; Table S2) [µM] | MIC in the presence of human serum [19] [µM] | further results |
| --- | --- | --- | --- | --- | --- | --- | --- | --- | --- | --- | --- | --- | --- | --- | --- | --- | --- | --- | --- | --- | --- |
| Colistin [reference compound] | – | – | – | – | – | – | – | – | – | – | – | – | – | – | – | – | – | – | – | – | MIC Ab ([1]; control antibiotic): 0.25 µg/mL; MIC Ec ([2]; control antibiotic): 0.125 µg/mL; MIC Pa ([3]; control antibiotic): 0.25 µg/mL; MIC Kp ([4]; CO‐ADD screening, control antibiotic): 0.25 µg/mL; MIC E. coli lpxC ([5]; Table S2, colistin control): 0.03 µg/mL; MIC E. coli TolC ([6]; Table S2, colistin control): 0.03 µg/mL |
| C1=CCCC=CCC1.[CH3][Pt][C](F)(C(F)(F)F)C(F)(F)F [Pt6] | 10 | >20 | >20 | >20 | >20 | 20 | 20 | > 100 | >100 | >100 | 100 | 200 | > 200 | > 200 | > 200 | 200 | 100 | 200 | > 200 | > 200 | MIC ([7]; Table S1 panel, n=2): 6.25 µM; MIC in the presence of human serum [20]: > 200 µM; MIC in the presence of human serum (S. aureus NRS 17 GISA): > 200 µM; MIC in the presence of human serum [21]: > 200 µM |
| C1=CCCC=CCC1.COc1cc[c]([Pt][CH3])cc1 [Pt5] | >20 | >20 | >20 | >20 | >20 | 10 | 20 | > 100 | 88.43 | >100 | 100 | 200 | > 200 | > 200 | > 200 | 200 | 50 | 50 | > 200 | > 200 | MIC [22]: 200 µM; MIC [23]: 100 µM; MIC E. coli lpxC ([5]; Table S2): > 200 µM; MIC in the presence of human serum [20]: > 200 µM; MIC in the presence of human serum (S. aureus NRS 17 GISA): > 200 µM; MIC in the presence of human serum [21]: > 200 µM |
